Measured values taken from patent US20250228239A1, “MOLECULES HAVING PESTICIDAL UTILITY, AND INTERMEDIATES, COMPOSITIONS, AND PROCESSES, RELATED THERETO” (priority 2024, published 2025).
Read-outs that look alike come from different tables or passages of the source.

Columns and labels:
Assay type in all cases: in vivo
[1] = test system: Cabbage Looper (Trichoplusia ni, TRIPNI); experiment: Bioassays on Cabbage Looper (CL), 128-well diet tray assay; conditions: Trichoplusia ni
Procedure, shortened: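 Diet tray, 2nd instar, 1–5 larvae/well; 50 μg/cm^2 compound surface-applied (acetone:water 90:10), dried; 8 wells/treatment; 25° C, 14:10 L:D, 5–7 d; % mortality, mean of 8 wells.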

[2] = test system: Yellow Fever Mosquito (Aedes aegypti, AEDSAE); conditions: for YFM rating: Table ABC / ABC-DP rating
Procedure, shortened: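 Mortality after 3 days at room temperature is the read-out, scored well by well and converted to a rating. Test molecules came from 4000 ppm stocks in DMSO, further diluted in 90:10 water/acetone, and were exposed to roughly 1-day-old larvae suspended in liver-powder water.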

[3] = test system: Beet Armyworm (Spodoptera exigua, LAPHEG); experiment: Bioassays on Beet Armyworm (BAW), 128-well diet tray assay; conditions: Spodoptera exigua
Procedure, shortened: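 One to five second-instar larvae per well on artificial diet surface-treated with 50 μg/cm^2 test molecule (applied in 90:10 acetone-water, dried), eight wells per compound. Trays held vented at 25° C., 14:10 light-dark for five to seven days; percent mortality averaged over the eight wells.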

[4] = Cabbage Looper, rating class, read-out: CL
[5] = Yellow Fever Mosquito, rating class
[6] = Beet Armyworm, rating class, read-out: BAW
[7] = Table ABC: Biological Results, species CL, read-out: CL
[8] = Table ABC: Biological Results, species YFM
[9] = Table ABC: Biological Results, species BAW, read-out: BAW
[10] = Cabbage Looper, Table ABC / ABC-DP rating, read-out: CL rating
[11] = Beet Armyworm, Table ABC / ABC-DP rating, read-out: BAW rating

| Compound | pest or weed control at 50 µg/cm2 [1, 4] [%] | YFM [2, 5] | pest or weed control at 50 µg/cm2 [3, 6] [%] | pest or weed control at 50 µg/cm2 [1, 7] [%] | YFM [2, 8] | pest or weed control at 50 µg/cm2 [3, 9] [%] | pest or weed control at 50 µg/cm2 [1, 10] [%] | YFM rating ([2]; Yellow Fever Mosquito) | pest or weed control at 50 µg/cm2 [3, 11] [%] |
| --- | --- | --- | --- | --- | --- | --- | --- | --- | --- |
| Cc1c(N)cccc1NC(=O)c1cc(NC(=O)[C@H]2[C@H](c3ccc(F)c(C(F)(F)F)c3)C2(Cl)Cl)ccc1Cl [F1448, N-(3-Amino-2-methylphenyl)-2-chloro-5-((1R,3R)-2,2-dichloro-3-(4-fluoro-3-(trifluoromethyl)phenyl)cyclopropane-1-carboxamido)benzamide] | 50 to 100 | A (80–100) | 50 to 100 |  |  |  |  |  |  |
| O=C(Nc1ccc(F)c(NC(=O)C(F)F)c1F)c1cc(NC(=O)[C@H]2[C@H](c3ccc(Br)cc3)C2(Cl)Cl)ccc1Cl (relative stereo) [F1597, trans-5-(3-(4-Bromophenyl)-2,2-dichlorocyclopropane-1-carboxamido)-2-chloro-N-(3-(2,2-difluoroacetamido)-2,4-difluorophenyl)benzamide] | 50 to 100 | A (80–100) | 50 to 100 |  |  |  |  |  |  |
| O=C(Nc1ccc(F)cc1)c1cc(NC(=O)[C@H]2[C@H](c3ccc(F)c(Cl)c3)C2(Cl)Cl)cc(F)c1Cl (relative stereo) [F1152, trans-2-Chloro-5-(2,2-dichloro-3-(3-chloro-4-fluorophenyl)cyclopropane-1-carboxamido)-3-fluoro-N-(4-fluorophenyl)benzamide] |  |  |  | 50 to 100 | A (80–100) | 50 to 100 |  |  |  |
| O=C(Nc1c(F)ccc(NC(=O)C(F)F)c1F)c1cc(NC(=O)[C@H]2[C@H](c3ccc(F)c(C(F)(F)F)c3)C2(Cl)Cl)ccc1F [F1561, 5-((1R,3R)-2,2-Dichloro-3-(4-fluoro-3-(trifluoromethyl)phenyl)cyclopropane-1-carboxamido)-N-(3-(2,2-difluoroacetamido)-2,6-difluorophenyl)-2-fluorobenzamide] | 50 to 100 | A (80–100) | 50 to 100 |  |  |  |  |  |  |
| O=C(Nc1ccc(F)c(NC(=O)C(F)(F)F)c1)c1cc(NC(=O)[C@H]2[C@H](c3cc(Cl)cc(Cl)c3)C2(Cl)Cl)ccc1Cl [F1813, 2-Chloro-5-((1R,3R)-2,2-dichloro-3-(3,5-dichlorophenyl)cyclopropane-1-carboxamido)-N-(4-fluoro-3-(2,2,2-trifluoroacetamido)phenyl)benzamide] |  |  |  |  |  |  | 50 to 100 | A (80–100) | 50 to 100 |
| Nc1c(F)ccc(NC(=O)c2cc(NC(=O)[C@H]3[C@H](c4cc(Br)cc(C(F)(F)F)c4)C3(Cl)Cl)ccc2Cl)c1F (relative stereo) [F1075, trans-N-(3-Amino-2,4-difluorophenyl)-5-(3-(3-bromo-5-(trifluoromethyl)phenyl)-2,2-dichlorocyclopropane-1-carboxamido)-2-chlorobenzamide] |  |  |  | 50 to 100 | A (80–100) | 50 to 100 |  |  |  |
| C=CCN(C(=O)C(F)F)c1c(F)ccc(NC(=O)c2cc(NC(=O)[C@H]3[C@H](c4ccc(F)c(C(F)(F)F)c4)C3(Cl)Cl)ccc2Cl)c1F [F1482, N-(3-(N-Allyl-2,2-difluoroacetamido)-2,4-difluorophenyl)-2-chloro-5-((1R,3R)-2,2-dichloro-3-(4-fluoro-3-(trifluoromethyl)phenyl)cyclopropane-1-carboxamido)benzamide] | 50 to 100 | A (80–100) | 50 to 100 |  |  |  |  |  |  |
| O=C(Nc1ccc(F)cc1F)c1cc(NC(=O)[C@H]2[C@H](c3cc(F)c(F)c(Br)c3)C2(Cl)Cl)ccc1Cl (relative stereo) [F1011, trans-5-(3-(3-Bromo-4,5-difluorophenyl)-2,2-dichlorocyclopropane-1-carboxamido)-2-chloro-N-(2,4-difluorophenyl)benzamide] |  |  |  | 50 to 100 | A (80–100) | 50 to 100 |  |  |  |
| O=C(Nc1ccc(F)c(NCCF)c1F)c1cc(NC(=O)[C@H]2[C@H](c3ccc(F)c(C(F)(F)F)c3)C2(Cl)Cl)ccc1Cl [F1826, 2-Chloro-5-((1R,3R)-2,2-dichloro-3-(4-fluoro-3-(trifluoromethyl)phenyl)cyclopropane-1-carboxamido)-N-(2,4-difluoro-3-((2-fluoroethyl)amino)phenyl)benzamide] |  |  |  |  |  |  | 50 to 100 | A (80–100) | 50 to 100 |
| O=C(NCC(F)(F)F)c1cc(NC(=O)[C@H]2[C@H](c3cc(Br)cc(S(F)(F)(F)(F)F)c3)C2(Cl)Cl)ccc1Cl (relative stereo) [F2008, trans-5-(3-(3-Bromo-5-(pentafluoro-λ^6-sulfanyl)phenyl)-2,2-dichlorocyclopropane-1-carboxamido)-2-chloro-N-(2,2,2-trifluoroethyl)benzamide] |  |  |  |  |  |  | 50 to 100 | A (80–100) | 50 to 100 |
| O=C(Nc1ccc(NC(=O)C(F)(F)F)c(Cl)c1)c1cc(NC(=O)[C@H]2[C@H](c3ccc(F)c(Cl)c3)C2(Cl)Cl)ccc1Cl (relative stereo) [F1384, trans-2-Chloro-N-(3-chloro-4-(2,2,2-trifluoroacetamido)phenyl)-5-(2,2-dichloro-3-(3-chloro-4-fluorophenyl)cyclopropane-1-carboxamido)benzamide] |  |  |  | 50 to 100 | A (80–100) | 50 to 100 |  |  |  |
| Cc1cc(NCc2ccc(Cl)cc2)ccc1NC(=O)c1cc(NC(=O)[C@H]2[C@H](c3cc(Cl)cc(Cl)c3)C2(Cl)Cl)ccc1Cl (relative stereo) [F1010, trans-2-chloro-N-(4-((4-chlorobenzyl)amino)-2-methylphenyl)-5-(2,2-dichloro-3-(3,5-dichlorophenyl)cyclopropane-1-carboxamido)benzamide] |  |  |  | 50 to 100 | A (80–100) | 50 to 100 |  |  |  |
| O=C(Nc1ccc(F)cc1F)c1cc(NC(=O)[C@H]2[C@@H](c3cc(F)c(Cl)c(Cl)c3)C2(Cl)Cl)ccc1Cl (relative stereo) [F1025, cis-2-Chloro-5-(2,2-dichloro-3-(3,4-dichloro-5-fluorophenyl)cyclopropane-1-carboxamido)-N-(2,4-difluorophenyl)benzamide] |  |  |  | 50 to 100 | A (80–100) | 50 to 100 |  |  |  |
| O=C(NCC(F)(F)C(F)(F)F)c1cc(NC(=O)[C@H]2[C@H](c3ccc(F)c(C(F)(F)F)c3)C2(Cl)Cl)c(F)cc1Cl [F2085, 2-Chloro-5-((1R,3R)-2,2-dichloro-3-(4-fluoro-3-(trifluoromethyl)phenyl)cyclopropane-1-carboxamido)-4-fluoro-N-(2,2,3,3,3-pentafluoropropyl)benzamide] |  |  |  |  |  |  | 50 to 100 | A (80–100) | 50 to 100 |
| CN(NC(=O)c1cc(NC(=O)[C@H]2[C@H](c3cc(Cl)cc(Cl)c3)C2(Cl)Cl)ccc1Cl)C(=O)OC(C)(C)C (relative stereo) [F2520, trans-tert-Butyl 2-(2-chloro-5-(2,2-dichloro-3-(3,5-dichlorophenyl)cyclopropane-1-carboxamido)benzoyl)-1-methylhydrazine-1-carboxylate] |  |  |  |  |  |  | 50 to 100 | A (80–100) | 50 to 100 |
| CN(C(=O)c1cc(NC(=O)[C@H]2[C@H](c3ccc(Cl)c(Cl)c3)C2(Cl)Cl)ccc1Cl)c1ccc(F)c(NC(=O)C(F)(F)F)c1F [F1792, 2-Chloro-5-((1R,3R)-2,2-dichloro-3-(3,4-dichlorophenyl)cyclopropane-1-carboxamido)-N-(2,4-difluoro-3-(2,2,2-trifluoroacetamido)phenyl)-N-methylbenzamide] |  |  |  |  |  |  | 50 to 100 | A (80–100) | 50 to 100 |
| CCOC(C)C(=O)Nc1c(F)ccc(NC(=O)c2cc(NC(=O)[C@H]3[C@H](c4ccc(Cl)c(Cl)c4)C3(Cl)Cl)ccc2Cl)c1F (stereo partly drawn) [F1604, 2-Chloro-5-((1R,3R)-2,2-dichloro-3-(3,4-dichlorophenyl)cyclopropane-1-carboxamido)-N-(3-(2-ethoxypropanamido)-2,4-difluorophenyl)benzamide] | 50 to 100 | A (80–100) | 50 to 100 |  |  |  |  |  |  |
| O=C(CCNC(=O)c1cc(NC(=O)C2C(c3cc(Cl)cc(Cl)c3)C2(Cl)Cl)ccc1Cl)NCC(F)(F)F [F2079, trans-2-Chloro-5-((1R,3R)-2,2-dichloro-3-(3,5-dichlorophenyl)cyclopropane-1-carboxamido)-N-(3-oxo-3-(2,2,2-trifluoroethylamino)propyl)benzamide] |  |  |  |  |  |  | 50 to 100 | A (80–100) | 50 to 100 |
| CC(=O)Nc1c(F)ccc(NC(=O)c2cc(NC(=O)[C@H]3[C@H](c4cc(Cl)c(Cl)c(Cl)c4)C3(Cl)Cl)ccc2F)c1F [F1528, N-(3-Acetamido-2,4-difluorophenyl)-5-((1R,3R)-2,2-dichloro-3-(3,4,5-trichlorophenyl)cyclopropane-1-carboxamido)-2-fluorobenzamide] | 50 to 100 | B (More than 0 – Less than 80) | 50 to 100 |  |  |  |  |  |  |
